According to US20060223996A1, “IL-12 modulatory compounds” (Synta Pharmaceuticals Corp., priority 2004, published 2006):

System: IL-12
Assay: Human in vitro assay: inhibition of IL-12 production in IFNγ/LPS- or IFNγ/SAC-stimulated human PBMC or THP-1 cells (ELISA)
Type: cell-based
Conditions: read-out: IC50 Range (representative in vitro IC50 data)
Method in brief: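 Sandwich ELISA for IL-12 (p70, p40) on supernatants collected 18 h after stimulation gave IC50 values; MTS monitored viability. THP-1 cells: IFNγ 100 U/mL priming 22 h, SAC 0.025%. PBMC: IFNγ 30 U/mL for 22 h plus LPS 1 μg/mL, or IFNγ 100 U/mL plus SAC 0.01%. Final DMSO 0.25%.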

Row | SMILES | IC50
1 | O=C(Nc1cccc([N+](=O)[O-])c1)c1cc(OCCN2CCOCC2)nc(N2CCOCC2)n1 [Compound 276, 2-Morpholin-4-yl-6-(2-morpholin-4-yl-ethoxy)-pyrimidine-4-carboxylic acid (3-nitro-phenyl)-amide] | ≥ 1000 nM
2 | COc1cccc(NC(=O)c2cc(OCCN3CCOCC3)nc(N3CCOCC3)n2)c1 [Compound 279, 2-Morpholin-4-yl-6-(2-morpholin-4-yl-ethoxy)-pyrimidine-4-carboxylic acid (3-methoxy-phenyl)-amide] | ≥ 1000 nM
3 | O=C(Nc1ccc(Nc2ccccc2)cc1)c1cc(OCCN2CCOCC2)nc(N2CCOCC2)n1 [Compound 284, 2-Morpholin-4-yl-6-(2-morpholin-4-yl-ethoxy)-pyrimidine-4-carboxylic acid (4-phenylamino-phenyl)-amide] | ≥ 1000 nM
4 | O=C(Nc1cccc(Cl)c1)c1cc(OCCN2CCOCC2)nc(N2CCOCC2)n1 [Compound 287, 2-Morpholin-4-yl-6-(2-morpholin-4-yl-ethoxy)-pyrimidine-4-carboxylic acid (3-chloro-phenyl)-amide] | ≥ 1000 nM
5 | Cc1cc(NC(=O)c2cc(OCCN3CCOCC3)nc(N3CCOCC3)n2)ccc1N(C)C [Compound 288, 2-Morpholin-4-yl-6-(2-morpholin-4-yl-ethoxy)-pyrimidine-4-carboxylic acid (4-dimethylamino-3-methyl-phenyl)-amide] | ≥ 1000 nM
6 | CNc1ccc(NC(=O)c2cc(OCCN3CCOCC3)nc(N3CCOCC3)n2)cc1C [Compound 289, 2-Morpholin-4-yl-6-(2-morpholin-4-yl-ethoxy)-pyrimidine-4-carboxylic acid (3-methyl-4-methylamino-phenyl)-amide] | ≥ 1000 nM
7 | CNc1cc(NC(=O)c2cc(OCCN3CCOCC3)nc(N3CCOCC3)n2)ccc1C [Compound 291, 2-Morpholin-4-yl-6-(2-morpholin-4-yl-ethoxy)-pyrimidine-4-carboxylic acid (4-methyl-3-methylamino-phenyl)-amide] | < 1000 nM
8 | O=C(Nc1cccnc1)c1cc(OCCN2CCOCC2)nc(N2CCOCC2)n1 [Compound 292, 2-Morpholin-4-yl-6-(2-morpholin-4-yl-ethoxy)-pyrimidine-4-carboxylic acid pyridin-3-ylamide] | ≥ 1000 nM
9 | O=C(Nc1nnc(N2CCOCC2)[nH]1)c1cc(OCCN2CCOCC2)nc(N2CCOCC2)n1 [Compound 293, 2-Morpholin-4-yl-6-(2-morpholin-4-yl-ethoxy)-pyrimidine-4-carboxylic acid (5-morpholin-4-yl-4H-[1,2,4]triazol-3-yl)-amide] | ≥ 1000 nM
10 | COC(=O)NCCOc1cc(C(=O)Nc2ccc3[nH]c(C)c(C)c3c2)nc(N2CCOCC2)n1 [Compound 294, {2-[6-(2,3-Dimethyl-1H-indol-5-ylcarbamoyl)-2-morpholin-4-yl-pyrimidin-4-yloxy]-ethyl}-carbamic acid methyl ester] | < 1000 nM
11 | O=C(Nc1cccc(N2CCOCC2)c1)c1cc(OCCN2CCOCC2)nc(N2CCOCC2)n1 [Compound 295, 2-Morpholin-4-yl-6-(2-morpholin-4-yl-ethoxy)-pyrimidine-4-carboxylic acid (3-morpholin-4-yl-phenyl)-amide] | < 1000 nM
12 | O=C(Nc1ccc2c(c1)NCCC2)c1cc(OCCN2CCOCC2)nc(N2CCOCC2)n1 [Compound 296, 2-Morpholin-4-yl-6-(2-morpholin-4-yl-ethoxy)-pyrimidine-4-carboxylic acid (1,2,3,4-tetrahydro-quinolin-7-yl)-amide] | ≥ 1000 nM
13 | Cc1ccc(NC(=O)c2cc(OCCN3CCOCC3)nc(N3CCOCC3)n2)cn1 [Compound 297, 2-Morpholin-4-yl-6-(2-morpholin-4-yl-ethoxy)-pyrimidine-4-carboxylic acid (6-methyl-pyridin-3-yl)-amide] | ≥ 1000 nM
14 | Cc1cccc(NC(=O)c2cc(N(C)CCO)nc(N3CCOCC3)n2)c1 [Compound 298, 6-[(2-Hydroxy-ethyl)-methyl-amino]-2-morpholin-4-yl-pyrimidine-4-carboxylic acid m-tolylamide] | < 1000 nM
15 | CC1CCc2ccc(NC(=O)c3cc(OCCN4CCOCC4)nc(N4CCOCC4)n3)cc2N1 (stereo not shown) [Compound 299, 2-Morpholin-4-yl-6-(2-morpholin-4-yl-ethoxy)-pyrimidine-4-carboxylic acid (2-methyl-1,2,3,4-tetrahydro-quinolin-7-yl)-amide] | ≥ 1000 nM

Now from value to molecule:

Row | IC50 | SMILES
16 | < 1000 nM | O=C(Nc1ccc2cc[nH]c2c1)c1cc(OCCN2CCOCC2)nc(N2CCOCC2)n1 [Compound 275, 2-Morpholin-4-yl-6-(2-morpholin-4-yl-ethoxy)-pyrimidine-4-carboxylic acid (1H-indol-6-yl)-amide]
17 | < 1000 nM | Nc1cccc(NC(=O)c2cc(OCCN3CCOCC3)nc(N3CCOCC3)n2)c1 [Compound 277, 2-Morpholin-4-yl-6-(2-morpholin-4-yl-ethoxy)-pyrimidine-4-carboxylic acid (3-amino-phenyl)-amide]
18 | < 1000 nM | O=C(Nc1cccc(N2CCCC2)c1)c1cc(OCCN2CCOCC2)nc(N2CCOCC2)n1 [Compound 278, 2-Morpholin-4-yl-6-(2-morpholin-4-yl-ethoxy)-pyrimidine-4-carboxylic acid (3-pyrrolidin-1-yl-phenyl)-amide]
19 | < 1000 nM | CNc1cccc(NC(=O)c2cc(OCCN3CCOCC3)nc(N3CCOCC3)n2)c1 [Compound 280, 2-Morpholin-4-yl-6-(2-morpholin-4-yl-ethoxy)-pyrimidine-4-carboxylic acid (3-methylamino-phenyl)-amide]
20 | < 1000 nM | Cc1[nH]c2ccc(NC(=O)c3cc(N4CCOCC4)nc(N4C[C@@H](C)O[C@@H](C)C4)n3)cc2c1C [Compound 281, 2-(2,6-Dimethyl-morpholin-4-yl)-6-morpholin-4-yl-pyrimidine-4-carboxylic acid (2,3-dimethyl-1H-indol-5-yl)-amide]
21 | < 1000 nM | Cc1cc(C)cc(NC(=O)c2cc(OCCN3CCOCC3)nc(N3CCOCC3)n2)c1 [Compound 282, 2-Morpholin-4-yl-6-(2-morpholin-4-yl-ethoxy)-pyrimidine-4-carboxylic acid (3,5-dimethyl-phenyl)-amide]
22 | < 1000 nM | Cc1c(C)n(C)c2ccc(NC(=O)c3cc(N4CCOCC4)nc(N4CCOCC4)n3)cc12 [Compound 283, 2,6-Di-morpholin-4-yl-pyrimidine-4-carboxylic acid (1,2,3-trimethyl-1H-indol-5-yl)-amide]
23 | < 1000 nM | O=C(Nc1cccc(-n2cccc2)c1)c1cc(OCCN2CCOCC2)nc(N2CCOCC2)n1 [Compound 285, 2-Morpholin-4-yl-6-(2-morpholin-4-yl-ethoxy)-pyrimidine-4-carboxylic acid (3-pyrrol-1-yl-phenyl)-amide]
24 | < 1000 nM | CNCCOc1cc(C(=O)Nc2ccc3c(c2)c(C)c(C)n3C)nc(N2CCOCC2)n1 [Compound 286, 6-(2-Methylamino-ethoxy)-2-morpholin-4-yl-pyrimidine-4-carboxylic acid (1,2,3-trimethyl-1H-indol-5-yl)-amide]
25 | < 1000 nM | Cc1ccc(NC(=O)c2cc(OCCN3CCOCC3)nc(N3CCOCC3)n2)cc1N(C)C [Compound 290, 2-Morpholin-4-yl-6-(2-morpholin-4-yl-ethoxy)-pyrimidine-4-carboxylic acid (3-dimethylamino-4-methyl-phenyl)-amide]
